Reference: patent US20250051391A1, “PEPTIDE INHIBITORS AND METHODS FOR INHIBITING PROTEIN AGGREGATION IN NEURONS AND NEURODEGENERATIVE DISEASES” (THE GOVERNING COUNCIL OF THE UNIVERSITY OF TORONTO, priority 2021, published 2025)
“Also recorded” adds a separate entry of the source. Numbered stars: 1 amine (or outer) side, 2 acyl side, 3 side chain; on linkers, the order of the positions; unused ones are H or OH. Bridge positions count the residues as written; N and C are the ends. Ends that are not written are not given here. Peptide text beside a SMILES is read from it. * marks the point of attachment. Perfluorobiphenyl(4,4') = Fc1c(F)c([*:1])c(F)c(F)c1-c1c(F)c(F)c([*:2])c(F)c1F; FITC = O=C1OC2(c3ccc(O)cc3Oc3cc(O)ccc32)c2ccc(NC(=S)*)cc21; Ahx = NCCCCCC(=O)O

How the values were obtained:
WT a-syn oligomers = test: Split luciferase a-syn oligomer/aggregation assay; type: cell-based, human; settings: cells stably expressing split luciferase a-synuclein constructs; stapled peptides
Method: tet-off cells stably expressing split luciferase a-syn constructs were trypsinized from subconfluent culture and seeded in a 96-well plate at a density of 15,000 cells per well. Cells were incubated overnight at 37° C. in 5% CO2. […] After 6 h of incubation, 20 μL of cell medium was transferred to a black flat-bottomed 96-well plate. 50 μL of Working solution (Pierce Gaussia-Firefly Luciferase Dual Assay Kit, Thermo Scientific #16181) was added into each well containing cell medium. Immediately after adding the reagent, samples were read using a luminometer with a 480 nm filter.

[1] = test system: HEK293 cells overexpressing WT or A53T a-syn; test: Cell Titer-Glo cell viability assay in a-syn expressing cells; type: cell-based, human
A53T a-syn = test: a-syn protein levels by immunoblot in HEK293 cells; type: cell-based, human; settings: HEK293 cells expressing A53T a-syn
Method: Infected or transfected cells were scraped from 6-well dishes and lysed with lysis buffer (50 mM Tris-HCl pH7.4, 1% Nonidet P-40, 150 mM NaCl, 1 mM EDTA, 1× protease inhibitor mixture (Sigma)) for 30 min at 4° C. The insoluble pellet was removed following a 10,000 rpm spin for 5 minutes at 4° C. Lysates were analyzed by SDS-PAGE/immunoblot using 4-20% Mini-PROTEAN Tris-glycine gels (Bio-Rad) transferred to PVDF membranes and blocked in 5% milk containing PBS-Tween-20 (0.1%) for 1 h. PVDF membranes were then incubated with specified primary antibodies followed by incubation with horseradish peroxidase-conjugated secondary antibodies (Santa Cruz Biotechnology) and detected using enhanced chemiluminescence (GE Healthcare).

[2] = test system: HEK293 cells overexpressing WT or A53T a-syn; test: Cell Titer-Glo cell viability assay in a-syn expressing cells; type: cell-based, human; settings: HEK293 cells overexpressing WT or A53T a-syn, with or without MG132; expressed GFP-peptide or protein
Method: Oligonucleotides encoding the specific peptides were synthesized and individually cloned into the pLJM1 nGFP lentiviral vector. Cells were infected with individual constructs, and cell viability was assessed using Cell Titer-Glo Luminescent assay (Promega) at 72 h post infection.
Cells were trypsinized from subconfluent cultures as described earlier, suspended in culture media, and then seeded into triplicate wells of a 96-well plate (100 μl well/1) at a density of 1.5×10^4 cells per well at standard culture conditions of 5% CO2 in air at 37° C. Cells were infected with lentivirus expressing peptide at an MOI of 5 for 72 h or transfected with plasmid for 72 h. Cell Titer-Glo reagent was added to each well (30 μL), according to the manufacturer's protocol and […].

VPS4 = settings: motif-domain interaction, reference (20); read-out: affinity of CHMP2B-VPS4 interaction; cited from earlier work
[3] = molecular target: T1, Charged multivesicular body protein 2B (CHMP2B), full length, purified (human, UniProt Q9UQN3 2-213); test: fluorescence polarization
T1 construct: mature; not shown: tag from the pET-DEST42 vector used for Ni-NTA purification
T1 sequence (Q9UQN3 2-213): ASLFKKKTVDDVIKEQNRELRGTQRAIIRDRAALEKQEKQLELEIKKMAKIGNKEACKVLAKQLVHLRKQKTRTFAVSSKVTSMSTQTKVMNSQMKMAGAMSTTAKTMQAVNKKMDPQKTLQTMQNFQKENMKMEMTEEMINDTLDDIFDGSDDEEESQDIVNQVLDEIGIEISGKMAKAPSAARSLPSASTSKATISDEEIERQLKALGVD

CHMP2B 1-199 truncation [4] = molecular target: T2, CHMP2B 1-199 truncation (human, UniProt Q9UQN3 1-199); test: fluorescence polarization
T2 construct: Tags and purification of the truncated protein are not described
T2 sequence (Q9UQN3 1-199 limits assumed): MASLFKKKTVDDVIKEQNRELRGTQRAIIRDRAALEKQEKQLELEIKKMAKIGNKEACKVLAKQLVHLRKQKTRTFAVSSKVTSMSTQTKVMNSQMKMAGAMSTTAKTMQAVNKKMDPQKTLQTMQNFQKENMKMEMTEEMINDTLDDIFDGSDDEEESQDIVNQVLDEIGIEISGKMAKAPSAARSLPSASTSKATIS

CHMP2B 1-199 truncation [5] = molecular target: T2, CHMP2B 1-199 truncation; test: fluorescence polarization, stapled peptide against truncated CHMP2B (1-199)
[6] = molecular target: T1, Charged multivesicular body protein 2B …; test: fluorescence polarization, stapled peptide against full length CHMP2B
[7] = molecular target: T1, Charged multivesicular body protein 2B …; test: fluorescence polarization, 50 nM FITC-peptide, CHMP2B titrated
[8] = molecular target: T3, VPS4B, purified (His-tagged Sumo construct) (UniProt O75351 1-444); test: fluorescence polarization (FIG. 8)
T3 construct: also called Vacuolar Protein Sorting 4; not shown: His tag and Sumo (pRSet B vector)
T3 sequence (looked up): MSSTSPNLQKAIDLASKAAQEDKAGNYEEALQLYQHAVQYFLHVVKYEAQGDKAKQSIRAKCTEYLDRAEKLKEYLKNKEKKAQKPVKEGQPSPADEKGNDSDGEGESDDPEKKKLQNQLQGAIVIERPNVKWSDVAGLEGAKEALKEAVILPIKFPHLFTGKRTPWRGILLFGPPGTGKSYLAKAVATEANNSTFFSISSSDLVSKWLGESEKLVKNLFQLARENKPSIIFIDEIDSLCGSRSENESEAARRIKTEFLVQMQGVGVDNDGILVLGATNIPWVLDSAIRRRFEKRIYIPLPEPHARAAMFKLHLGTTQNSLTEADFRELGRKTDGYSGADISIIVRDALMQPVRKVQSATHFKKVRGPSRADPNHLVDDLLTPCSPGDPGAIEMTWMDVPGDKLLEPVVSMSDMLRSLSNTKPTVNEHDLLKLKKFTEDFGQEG

[9] = molecular target: T3, VPS4B, purified (His-tagged Sumo …); test: fluorescence polarization, FITC-peptide against VPS4B
[10] = molecular target: T1, Charged multivesicular body protein 2B …; test: fluorescence polarization, FITC-labelled a-syn peptide, CHMP2B titrated

DIEICFQLKALC (cysteine staple) [stapled macrocycle; cysteines introduced at the locations to be stapled]
a-syn aggregation measured by luciferase activity (WT a-syn oligomers): significant reduction in a-syn aggregation | A53T cell viability, stapled peptides incubated [1]: increase in A53T cell viability

CHMP2B (1-199): truncated CHMP2B removing the MIM, residues 1-199
a-syn protein levels by immunoblot (A53T a-syn): reduction in a-syn levels | cell viability / cytoprotective effect [2]: rescues toxicity

CHMP2B (1-178): shorter CHMP2B truncation (1-178) implicated in FTD
cell viability / cytoprotective effect [2]: increased toxicity

full-length CHMP2B: Charged Multivesicular Body Protein 2B, member of ESCRT-III, uniprot ID Q9UQN3
Kd (VPS4): 178 µM | a-syn protein levels by immunoblot (A53T a-syn): reduced a-syn protein levels; also recorded: reduces a-syn levels | cell viability / cytoprotective effect [2]: rescues a-syn cytotoxicity

DEEYCRQWKALC (cysteine staple) [stapled macrocycle; cysteines introduced at the locations to be stapled]
a-syn aggregation measured by luciferase activity (WT a-syn oligomers): significant reduction in a-syn aggregation | A53T cell viability, stapled peptides incubated [1]: increase in A53T cell viability

CC[C@H](C)[C@H](NC(=O)[C@H](CCC(=O)O)NC(=O)[C@H](CCC(=O)O)NC(=O)[C@H](CC(=O)O)NC(=O)CCCCCNC(=S)Nc1ccc2c(c1)C(=O)OC21c2ccc(O)cc2Oc2cc(O)ccc21)C(=O)N[C@H]1CSc2c(F)c(F)c(c(F)c2F)-c2c(F)c(F)c(c(F)c2F)SC[C@@H](C(N)=O)NC(=O)[C@H](CC(C)C)NC(=O)[C@H](C)NC(=O)[C@H](CC(=O)O)NC(=O)[C@H](CC(C)C)NC(=O)[C@H](CCC(N)=O)NC(=O)[C@H](CCCNC(=N)N)NC1=O ({FITC-Ahx}-DEEICRQLDALC-NH2; linker 5-12 via Perfluorobiphenyl(4,4'); N-terminus and C-terminus assumed)
a-syn aggregation measured by luciferase activity (WT a-syn oligomers): significant reduction in a-syn aggregation | A53T cell viability, stapled peptides incubated [1]: increase in A53T cell viability

{FITC}-DIEICFQLKALC (linker 5-12 via hexafluorobenzene (inferred), also called optimized macrocycle) [Stapled peptide DIEICFQLKALC]
binding result [3]: binds | binding result (CHMP2B 1-199 truncation [4]): binds

{FITC}-DEEICRQLDALC (linker 5-12 via hexafluorobenzene (inferred), also called optimized macrocycle) [Stapled Pdpep1.4 variant DEEICRQLDALC]
Kd (CHMP2B 1-199 truncation [5]): 0.06 µM | Kd [6]: 0.6 µM

B1: FITC-labeled PDpep1.3 peptide DEEIERQLKALG (peptide)
peptide: {FITC}-DEEIERQLKALG
notes: Synthetic peptide (LifeTein) with an N-terminal FITC moiety, used in the fluorescence polarization assays; also called DPpep1.3; FITC-Pdpep1.3
Kd [7]: 1.8 µM | Kd [8]: > 100 µM | Kd [9]: ~200 µM

{FITC}-NEEGAPQEGILE [FITC-labelled a-syn peptide, amino acids 103-114 (NEEGAPQEGILE)]
Kd [10]: 0.64 µM
